As a reminder, the logP is a log measure of how a compound divides between an organic and an aqueous phase.

Like-named read-outs stand apart in the source and are kept apart here. Numbered stars: 1 amine (or outer) side, 2 acyl side, 3 side chain; on linkers, the order of the positions; unused ones are H or OH. Square brackets hold non-standard residues; d marks the D form. Side chains are listed from the residue outwards. Peptide text beside a SMILES is read from it. * marks the point of attachment. Ethylenediamine = C(CN[*:2])N[*:1]; Hyp = O=C(O)[C@@H]1C[C@@H](O)CN1; Phg = N[C@H](C(=O)O)c1ccccc1; CO = O=C([*:1])[*:2]; Bn = c1ccc(C*)cc1

The conditions of data set [1]: cited from earlier work.
Data set [2] in a line: partition coefficient (lipophilicity).

Consider `C[C@@H](O)[C@@H]1NC(=O)[C@H](CCCCN)NC(=O)[C@@H](Cc2c[nH]c3ccccc23)NC(=O)[C@H](Cc2ccccc2)NC(=O)[C@@H](NC(=O)[C@H](N)Cc2ccccc2)CSSC[C@@H](C(=O)N[C@H](CO)[C@@H](C)O)NC1=O` [octreotide], for which the half-life entry in data set [1] (octapeptide analog, can be given subcutaneously) is on record as “approximately 1.5 hours”. The compound further yielded a logP in data set [2] of 5.5.
In data set [2], `NCCCC[C@@H]1NC(=O)[C@@H](Cc2c[nH]c3ccccc23)NC(=O)[C@H](c2ccccc2)NC(=O)[C@@H]2C[C@@H](OC(=O)NCCN)CN2C(=O)[C@H](Cc2ccccc2)NC(=O)[C@H](Cc2ccc(OCc3ccccc3)cc2)NC1=O` [pasireotide, cyclo[{4-(NH2—C2H4—NH—CO—O-)Pro}-Phg-DTrp-Lys-Tyr(4-Bzl)-Phe]] (cyclo([Hyp]([CO-Ethylenediamine])[Phg][dW]KY(Bn)F); ring closure inferred) had a logP of 2.7.
In the case of somatostatin, in data set [1] (native somatostatin, necessitates intravenous infusion), the half-life result is “several minutes”.

The values above are taken from patent US20110319329A1, “USE OF SO[…] IN CLUSTER HEADACHE” (priority 2007, published 2011).
